Measurements taken from paper PMC7044277 (Nature Communications, 2020).
Several values for one entry are separate records, joined by “and”; a condition that tells them apart may be missing. Identical values can stand only once.

Experiments:
5HT1E = 5HT1E (Homo sapiens, UniProt P28566); experiment: β-arrestin2 recruitment (Tango); format: cell-based; conditions: Fig_S10i
[1] = test system: serotonin receptor of Fig_S10g (subtype not named); experiment: β-arrestin2 recruitment (Tango), agonist activity, panel Fig_S10g (serotonin as reference; receptor not given); format: cell-based, human
5HT2A = 5HT2A (Homo sapiens, UniProt P28223); experiment: β-arrestin2 recruitment (Tango); format: cell-based; conditions: single replicate values
Sequence of 5HT2A (P28223 whole entry): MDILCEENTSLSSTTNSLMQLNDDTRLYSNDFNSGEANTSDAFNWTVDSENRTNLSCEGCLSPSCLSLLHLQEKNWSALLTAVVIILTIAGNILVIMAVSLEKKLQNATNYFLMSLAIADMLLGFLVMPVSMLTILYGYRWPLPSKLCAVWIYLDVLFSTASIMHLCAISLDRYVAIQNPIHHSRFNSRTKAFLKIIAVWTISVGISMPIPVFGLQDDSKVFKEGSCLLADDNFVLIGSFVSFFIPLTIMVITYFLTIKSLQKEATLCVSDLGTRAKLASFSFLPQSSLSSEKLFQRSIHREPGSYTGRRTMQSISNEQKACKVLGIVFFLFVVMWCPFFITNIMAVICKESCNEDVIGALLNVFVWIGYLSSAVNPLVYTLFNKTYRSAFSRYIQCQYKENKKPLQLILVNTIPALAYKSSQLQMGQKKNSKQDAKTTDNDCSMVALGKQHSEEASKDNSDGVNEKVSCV

Sequence of 5HT1E (P28566 whole entry): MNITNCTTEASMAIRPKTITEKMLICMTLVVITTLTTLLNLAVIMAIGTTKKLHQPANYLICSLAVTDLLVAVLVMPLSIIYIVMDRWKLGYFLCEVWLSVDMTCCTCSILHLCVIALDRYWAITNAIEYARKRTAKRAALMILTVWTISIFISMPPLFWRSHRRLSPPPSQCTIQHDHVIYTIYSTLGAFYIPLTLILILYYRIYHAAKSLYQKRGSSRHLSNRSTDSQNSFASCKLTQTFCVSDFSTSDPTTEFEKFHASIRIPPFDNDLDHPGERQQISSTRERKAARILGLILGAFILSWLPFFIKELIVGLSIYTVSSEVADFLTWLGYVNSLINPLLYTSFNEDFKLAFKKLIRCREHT

## NCCc1c[nH]c2ccc(O)cc12 [serotonin]
5HT1E; Log[Drug] -7
  β-arrestin2 recruitment response, agonist mode (single replicate values): 29.3778 and 17.2077 and 21.8054 and 52.9182 and 14.1436 and 22.9549 and 34.3028 and 15.3331 and 17.5442
5HT1E; Log[Drug] -7.52
  β-arrestin2 recruitment response, agonist mode (single replicate values): 41.4851 and -6.092 and 11.8176 and 23.4775 and 20.4513 and 6.343 and -1.8765 and -0.1243 and 3.783
5HT1E; Log[Drug] -8
  β-arrestin2 recruitment response, agonist mode (single replicate values): 21.7287 and -17.9678 and 1.664 and 16.3198 and 16.2023 and 1.767 and -8.704 and -1.0625 and 5.333
5HT1E; Log[Drug] -8.52
  β-arrestin2 recruitment response, agonist mode (single replicate values): 26.6743 and -0.7908 and -7.94 and 18.4011 and -5.808 and -1.038 and -3.241 and -4.6991 and -0.4891
5HT1E; Log[Drug] -9
  β-arrestin2 recruitment response, agonist mode (single replicate values): -13.5816 and -3.11 and -9.22 and 15.9426 and -4.472 and -7.47 and -3.2021 and 8.202 and 2.053
5HT1E; Log[Drug] -9.52
  β-arrestin2 recruitment response, agonist mode (single replicate values): -5.0682 and -13.6215 and 3.951 and -3.374 and 10.856 and -15.4751 and -6.969 and 2.056 and -4.273
5HT1E; Log[Drug] -10
  β-arrestin2 recruitment response, agonist mode (single replicate values): -0.8245 and 7.169 and 4.501 and 15.8236 and -1.758 and 5.793 and -9.018 and 1.66
5HT1E; Log[Drug] -10.52
  β-arrestin2 recruitment response, agonist mode (single replicate values): -1.038 and -22.0751 and -13.8927 and 22.1779 and 3.45 and -2.9 and -5.64 and 8.736
5HT1E; Log[Drug] -11
  β-arrestin2 recruitment response, agonist mode (single replicate values): -16.6513 and -2.431 and 20.3066 and 6.343 and -2.603 and 3.357
[1]; Log[Drug] -8, drug alone
  response, single replicate of concentration-response curve: 25.2624 and 2.418 and -0.9864 and -1.203
[1]; Log[Drug] -8.52, drug alone
  response, single replicate of concentration-response curve: 25.8336 and 6.58 and 3.873 and 4.678 and -1.548 and 7.766 and 9.13 and -0.6727 and -11.3553 and -6.415 and -5.731 and -10.9031
[1]; Log[Drug] -9, drug alone
  response, single replicate of concentration-response curve: 10.8032 and 1.6368 and -4.3076 and 0.1698 and 3.269 and 3.74 and 1.924 and 0.05671 and -7.517 and 1.634 and 12.5106 and -9.089
[1]; Log[Drug] -9.52, drug alone
  response, single replicate of concentration-response curve: 7.867 and 1.536 and -2.919 and -4.095 and 0.1351 and -9.62 and 29.2497 and 12.5325 and 5.929 and 12.1786 and -19.689 and -3.037
[1]; Log[Drug] -10, drug alone
  response, single replicate of concentration-response curve: 13.3168 and 3.318 and 3.578 and -7.852 and 7.397 and -7.7805 and -4.613 and 22.4428 and -0.2757 and -9.974 and -10.1372 and -5.303
[1]; Log[Drug] -10.52, drug alone
  response, single replicate of concentration-response curve: -2.613 and 10.3391 and -3.556 and 0.8157 and -5.415 and -4.823 and 18.6922 and -6.036 and 3.52 and 5.655 and -15.149 and -15.6819
[1]; Log[Drug] -11, drug alone
  response, single replicate of concentration-response curve: 7.973 and 11.7127 and -1.724 and -0.1913 and 3.65 and 5.648 and -0.1936 and 0.6531 and 0.8995 and 27.444 and 32.0015 and 10.1517
[1]; Log[Drug] -11.52, drug alone
  response, single replicate of concentration-response curve: 21.6155 and 10.2673 and -4.337 and 2.007 and 0.7121 and -12.0608 and 20.4384 and 18.8721 and -0.9836 and 23.865 and -4.732 and 10.0527
[1]; Log[Drug] -12, drug alone
  response, single replicate of concentration-response curve: 27.8009 and 4.255 and 0.08804 and -4.341 and 18.1882 and 2.442 and 25.1178 and 36.1309 and 7.918 and 30.4435 and -6.616 and 17.9883
5HT2A; Log[Drug] -7
  Fig_S10k dose-response, drug alone (agonist mode), β-arrestin2 recruitment: 2.15 and 3.679 and 4.811 and -0.4868 and 5.6493 and -0.2054
5HT2A; Log[Drug] -7.52
  Fig_S10k dose-response, drug alone (agonist mode), β-arrestin2 recruitment: -0.7997 and 2.965 and 17.8531 and -0.2054 and -0.763 and 5.3131 and 4.228 and 3.612 and 4.7477
5HT2A; Log[Drug] -8
  Fig_S10k dose-response, drug alone (agonist mode), β-arrestin2 recruitment: -3.989 and -1.195 and 1.849 and -1.365 and -2.184 and 9.999 and -0.5868 and 4.719
5HT2A; Log[Drug] -8.52
  Fig_S10k dose-response, drug alone (agonist mode), β-arrestin2 recruitment: -0.2128 and 3.793 and -1.972 and 2.067 and -0.1908 and -0.1834 and -1.527 and -2.08 and -0.286 and -0.3848 and 2.472 and 0.1395
5HT2A; Log[Drug] -9
  Fig_S10k dose-response, drug alone (agonist mode), β-arrestin2 recruitment: 2.751 and -4.014 and -3.749 and 5.589 and 0.3815 and 2.971 and 0.02275 and 2.73 and 0.208 and 0.558 and 0.5339
5HT2A; Log[Drug] -9.52
  Fig_S10k dose-response, drug alone (agonist mode), β-arrestin2 recruitment: 1.871 and 1.852 and -0.4489 and -0.2054 and 2.157 and -3.113 and 1.313 and -0.39 and 0.00481 and 0.7312 and 5.479
5HT2A; Log[Drug] -10
  Fig_S10k dose-response, drug alone (agonist mode), β-arrestin2 recruitment: 0.9831 and -1.745 and 1.865 and 2.4358 and -0.7924 and 0.9424 and -2.603 and -1.547 and -0.3848 and 0.8707 and 19.7653
5HT2A; Log[Drug] -10.52
  Fig_S10k dose-response, drug alone (agonist mode), β-arrestin2 recruitment: 1.062 and 0.5626 and 5.943 and 0.675 and 1.189 and 0.1462 and -0.6434 and -0.1876 and 0.3223
5HT2A; Log[Drug] -11
  Fig_S10k dose-response, drug alone (agonist mode), β-arrestin2 recruitment: -1.391 and 0.03161 and 5.943 and 0.3155 and -1.667 and -1.459 and -0.8081
5HT2A; Log[Drug] -11.52
  Fig_S10k dose-response, drug alone (agonist mode), β-arrestin2 recruitment: 2.458 and 6.164 and 3.035 and 8.661 and 1.783 and -1.534 and 0.9332
5HT2A; Log[Drug] -12
  Fig_S10k dose-response, drug alone (agonist mode), β-arrestin2 recruitment: 0.4182 and -4.489 and -0.5209 and 0.1755 and -2.72 and 0.5037 and -1.135 and 0.1924 and 0.9524
